{"source": "patent US12350250B2", "about": "“Aggrelytes for treating ocular conditions” (The Regents of the University of Colorado, a Body Corporate, priority 2022, dated 2025)", "key": {"[1]": {"target": "T1, γD-crystallin (γDC) (Homo sapiens, UniProt P07320)", "T1 sequence (P07320 1-174)": "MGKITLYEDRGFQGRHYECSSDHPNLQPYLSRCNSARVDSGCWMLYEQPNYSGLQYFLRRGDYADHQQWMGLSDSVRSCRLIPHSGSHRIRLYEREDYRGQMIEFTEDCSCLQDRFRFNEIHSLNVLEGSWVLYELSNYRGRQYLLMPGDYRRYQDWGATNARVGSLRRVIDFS", "experiment": "AGE formation (CML, CEL) in glycated recombinant γD-crystallin", "assay_type": "biochemical", "conditions": "γDC 2 mg/mL pretreated with 1.25 mM aggrelyte-2 for 24 h, glycating mixture 5 days", "experimental": "(§1) To investigate the effects of Aggrelyte-2 on advanced glycation end product (AGE) formation, human recombinant αAC (3 mg/mL) or γD-crystallin (γDC, 2 mg/mL) in PBS was treated with or without aggrelyte-2 (10 mM for αAC and 1.25 mM for γDC) for 24 h, dialyzed against 100 mM sodium phosphate buffer pH 7.4 for 16 h and incubated with or without a glycating mixture (2 mM ascorbate, 25 mM D-glucose and 250 μM methylglyoxal) in 100 mM sodium phosphate buffer pH 7.4 for 5 days (after adding 0.002% sodium azide) at 37° C. The incubated proteins were dialyzed against PBS for 16 h, treated with 100 mM sodium borohydride for 1 h at room temperature, and acid hydrolyzed. Two AGEs, N^−-carboxymethyllysine (CML) and N^□-carboxyethyllysine (CEL), were measured by LC-MS/MS as described above. Each sample was separately processed 3-4 times."}, "[2]": {"system": "αB-crystallin (αBC)", "experiment": "Crystallin levels in solubilized human lens proteins (Western blot), αBC", "assay_type": "biochemical", "conditions": "500 μM, solubilized proteins of three human lenses; not significant", "experimental": "The contents of crystalline proteins [αA-crystallin (αAC), αB-crystallin (αBC), β-crystallin (βC), and γ-crystallin (γC)] in the solubilized proteins of three human lenses treated with either Aggrelyte-2 or Aggrelyte-2C (500 μM) from Example 4 were determined by Western blot analysis as described for Example 5. Membranes were incubated with antibodies against αAC (1:14,000 dilution; Enzo Life Sciences, Catalog #ADI-SPA-221D), αBC (1:700,000 dilution; University of Iowa), βC (1:14,000 dilution; Santa Cruz Biotechnology, Catalog #sc-22745), and γC (1:7,000 dilution; Santa Cruz Biotechnology, Catalog #sc-22746). The secondary antibodies were HRP-conjugated anti-mouse IgG for αBC and HRP-conjugated […] (Cell Signaling Technology, Catalog #7074S) for αAC, βC, and γC. According to the supplier, the […] detects mostly βB1-crystallin and, to a lesser extent, βA1/3, βA2, βA4, βB2, and βB3-crystallin. The γC antibody reacts with γA, γB, γC, γD, γE, and γF-crystallin."}, "[3]": {"target": "T2, human recombinant αAC (Homo sapiens, UniProt P02489)", "T2 sequence (P02489 1-173)": "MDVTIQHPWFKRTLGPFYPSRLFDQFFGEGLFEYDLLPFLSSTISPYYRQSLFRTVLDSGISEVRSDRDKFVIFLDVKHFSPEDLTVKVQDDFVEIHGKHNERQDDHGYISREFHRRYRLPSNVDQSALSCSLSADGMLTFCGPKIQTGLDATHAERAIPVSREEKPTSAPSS", "experiment": "AGE formation (CML, CEL) in glycated recombinant αAC", "assay_type": "biochemical", "conditions": "αAC 3 mg/mL pretreated with 10 mM aggrelyte-2 for 24 h, glycating mixture 5 days", "experimental": "as §1"}, "[4]": {"system": "mouse lenses", "experiment": "Acetylated proteins in ex vivo treated mouse lenses (Western blot, Example 19)", "conditions": "1 mM, 24 hours", "experimental": "The lenses from Example 18 were homogenized using N2-bubbled 50 mM phosphate buffer, pH 7.4 (0.4 mL per lens), in a hand-held motorized homogenizer. The homogenate was centrifuged at 20,000×g for 20 minutes at 4° C. The resulting supernatant was collected, and its protein content was measured using BCA Protein Assay Kit using BSA as the standard. The soluble protein was subjected to 12% SDS-PAGE under denaturing conditions and the proteins were electrophoretically transferred to a nitrocellulose membrane and blocked with 5% nonfat dry milk. The membrane was then incubated with a monoclonal antibody against N-acetyllysine (AcK antibody @ 1:5,000 dilution; Cell Signaling Technology Catalog #9681S) for 16 hours, followed by horseradish peroxidase (HRP)-conjugated goat anti-mouse IgG (1:5,000 dilution; Cell Signaling Technology Catalog #7076S) for 1 hour. Chemiluminescence was detected using the Enhanced Chemiluminescence Detection Kit. The membrane was stained with Ponceau-S to visualize the proteins and normalize acetyllysine (AcK)-bearing protein to total protein load."}}}
{"molecule": "COC(=O)[C@H](CSC(C)=O)NC(C)=O", "note": "[Aggrelyte-2, N,S-diacetyl-L-cysteine methyl ester]", "values": [{"measurement": "levels of both CML and CEL (AGEs) after glycation", "setting": "[1]", "result": "significantly reduced (p<0.0001)"}, {"measurement": "levels of αBC, fold higher than in the Aggrelyte-2C-treated samples", "setting": "[2]", "result": 1.1, "unit": "fold"}, {"measurement": "levels of αBC, fold higher than in the Controls", "setting": "[2]", "result": 1.2, "unit": "fold"}, {"measurement": "levels of both CML and CEL (AGEs) after glycation", "setting": "[3]", "result": "significantly reduced (p<0.0001)"}, {"measurement": "density of acetyl-bearing proteins, fold increase compared to untreated control lenses", "setting": "[4]", "result": 2, "unit": "fold"}]}
